Source: ChEMBL document CHEMBL5614411, “Exploring novel A2AAR antagonists: Design, synthesis, and evaluation of 2,6,9-trisubstituted purine derivatives as promising antifibrotic agents” (Bioorg Med Chem, 2024)
Activity calls are given as the source filed them. The rule behind the calls is not given here.

Legend:
Assay type in all cases: functional, cell-based
LX-2 [1] = assay: Antifibrotic activity against human LX-2 cells overexpressing human Adenosine receptor A2a assessed as downregulation of COL1A1 expression at 10 uM incubated for 18 hrs by Western blotting analysis
LX-2 [2] = assay: Antifibrotic activity against human LX-2 cells overexpressing human Adenosine receptor A2a assessed as downregulation of alpha-SMA expression at 10 uM incubated for 18 hrs by Western blotting analysis
LX-2 [3] = assay: Antifibrotic activity against human LX-2 cells overexpressing human Adenosine receptor A2a assessed as downregulation of PKA phosphorylation at Thr197 residue at 10 uM incubated for 18 hrs by Western blotting analysis
LX-2 [4] = assay: Antifibrotic activity against human LX-2 cells overexpressing human Adenosine receptor A2a assessed as downregulation of fibronectin expression at 10 uM incubated for 18 hrs by Western blotting analysis
Adenosine receptor A2a = Adenosine receptor A2a (Homo sapiens, UniProt P29274); assay: Antagonist activity at human Adenosine receptor A2a transfected in HEK293 cells co-expressing CRE-luciferase plasmid assessed as reduction in CRE promoter activity by measuring effective concentration incubated for 18 hrs by luciferase based CRE reporter assay
Sequence of Adenosine receptor A2a (P29274 whole entry): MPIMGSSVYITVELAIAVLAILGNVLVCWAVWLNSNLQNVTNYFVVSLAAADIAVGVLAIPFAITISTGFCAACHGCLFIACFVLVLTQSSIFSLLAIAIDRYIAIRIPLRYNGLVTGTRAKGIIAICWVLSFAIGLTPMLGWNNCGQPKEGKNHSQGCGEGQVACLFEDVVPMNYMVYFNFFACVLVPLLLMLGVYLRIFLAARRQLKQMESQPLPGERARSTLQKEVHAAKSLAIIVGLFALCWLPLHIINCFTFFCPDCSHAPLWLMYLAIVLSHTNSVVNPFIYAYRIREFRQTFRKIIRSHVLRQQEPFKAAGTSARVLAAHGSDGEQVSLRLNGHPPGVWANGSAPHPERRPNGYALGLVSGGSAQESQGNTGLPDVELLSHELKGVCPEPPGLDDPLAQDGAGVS

Row | Structure (SMILES) | Activity (LX-2 [1]) | Activity (LX-2 [2]) | Activity (LX-2 [3]) | Activity (LX-2 [4]) | EC50 (Adenosine receptor A2a) [µM]
1 | CNc1nc(C#Cc2ccccc2)nc2c1ncn2Cc1cc(OC)c(OC)c(OC)c1 | inactive | inactive | inactive | inactive | 
2 | CNc1nc(C#Cc2ccccc2)nc2c1ncn2Cc1ccccc1 | Active | Active | Active | Active | 14.6
